The text below walks through data of PubChem BioAssay (NCI).

Test systems include HS 578T breast; NCI-H226 lung; SNB-19 CNS; U251 CNS; SR leukemia; MDA-MB-435; MCF7 breast; HOP-62 NSCLC; OVCAR-3 ovarian; SF-539 CNS.
Common to all, as to assay: NCI anticancer screen, dose series, 48 h

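Five compound concentrations were applied to cells in 96-well plates for 48 hours; endpoints were derived by simple linear interpolation of the resulting dose-response curve. At the GI50, growth is halved. TGI: concentration producing complete growth inhibition.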

As for `O=C(Nc1ccccc1)c1cc2ccccc2c(N=Nc2cccc([N+](=O)[O-])c2)c1O`, the TGI is 99.1 µM in the test on HS 578T breast; greater than 100 µM with NCI-H226 lung; 97.2 µM with SNB-19 CNS; greater than 100 µM with U251 CNS; greater than 100 µM in the test on SR leukemia; greater than 100 µM in the test with MDA-MB-435. In addition, the TGI in the test with MCF7 breast, with HOP-62 NSCLC, in the test on OVCAR-3 ovarian and in the test with SF-539 CNS was greater than 100 µM throughout.
As to `C1=N[C@]23C(=N[C@H](N=C2NCc2ccco2)[C@]24N=CNC2=N[C@H]3N=C4NCc2ccco2)N1`, the GI50 with HS 578T breast was 39.1 µM; with NCI-H226 lung, 65.4 µM; with SNB-19 CNS, greater than 100 µM; in the test on U251 CNS, greater than 100 µM; with SR leukemia, greater than 100 µM; in the test with MDA-MB-435 it was greater than 100 µM. The GI50 in the test on MCF7 breast, in the test on HOP-62 NSCLC, in the test with OVCAR-3 ovarian and with SF-539 CNS was greater than 100 µM throughout. The TGI in the test with HS 578T breast, in the test on NCI-H226 lung, in the test on SNB-19 CNS, in the test on U251 CNS, in the test on SR leukemia and in the test on MDA-MB-435 was greater than 100 µM in each case. In addition, the TGI with MCF7 breast, with HOP-62 NSCLC, in the test on OVCAR-3 ovarian and with SF-539 CNS was greater than 100 µM throughout.
On to `Cc1c(C)c2c(c(C)c1OC(=O)CCC(=O)[O-])CCC(C)(CCCCCCCCCCC[P+](c1ccccc1)(c1ccccc1)c1ccccc1)O2` (stereo unspecified), for which the GI50 with HS 578T breast is 0.18 µM; in the test on SR leukemia, 0.261 µM; in the test with MDA-MB-435, 0.179 µM; in the test on MCF7 breast, 0.161 µM; in the test on OVCAR-3 ovarian it was 0.145 µM; in the test on SF-539 CNS, 0.185 µM. Further, the TGI came to 1.31 µM with HS 578T breast; 9.05 µM in the test on SR leukemia; 0.67 µM in the test with MDA-MB-435; 0.815 µM with MCF7 breast; 0.542 µM with OVCAR-3 ovarian; 0.721 µM in the test with SF-539 CNS.
`O=C([CH-]C(=O)c1ccccc1)c1ccccc1.[C-]#[O+].[C-]#[O+].[Ir]`: the GI50 is 33.3 µM with NCI-H226 lung; 66.4 µM in the test on SNB-19 CNS; 36.4 µM in the test with U251 CNS; greater than 100 µM in the test on OVCAR-3 ovarian; 99.4 µM with SF-539 CNS. Further, the TGI with NCI-H226 lung, in the test on SNB-19 CNS, with U251 CNS, in the test on OVCAR-3 ovarian and in the test with SF-539 CNS was greater than 100 µM each time.
As for `C=C1CC[C@@]2(C)[C@@H]([C@@H]1C)[C@H]1CC[C@@H]3[C@@]4(C)CC[C@H](O)C(C)(C)[C@@H]4CC[C@@]3(C)[C@]1(C)C[C@@H]2O`, the TGI is 7.29 µM in the test with HS 578T breast; 40.1 µM in the test with NCI-H226 lung; 8.44 µM in the test on SNB-19 CNS; greater than 100 µM with SR leukemia; 26 µM with MDA-MB-435; 9.23 µM in the test on MCF7 breast. Besides, the results for the TGI in the test with HOP-62 NSCLC, in the test on OVCAR-3 ovarian and in the test with SF-539 CNS were 9.18 µM, 16.1 µM and 6.29 µM, respectively.
Turning to `CON(C)c1nc(N)c(C#N)c(C#N)c1C#N`, the TGI with HS 578T breast, with NCI-H226 lung, in the test with SNB-19 CNS, in the test with U251 CNS, with SR leukemia and in the test with MDA-MB-435 was greater than 10 µM throughout. Also, the TGI in the test on MCF7 breast, in the test with HOP-62 NSCLC, in the test on OVCAR-3 ovarian and in the test with SF-539 CNS was greater than 10 µM each time.
For `C[C@@H]1C[C@H]2OC(=O)[C@@]3(C)CCC[C@@](C)([C@@H]23)[C@@]1(O)CCc1ccoc1`, the TGI with HS 578T breast was greater than 100 µM; in the test on NCI-H226 lung, greater than 100 µM; with SNB-19 CNS, greater than 100 µM; in the test with U251 CNS it was greater than 100 µM; in the test with SR leukemia, greater than 88.9 µM; with MDA-MB-435, greater than 100 µM. The TGI in the test with MCF7 breast, in the test with HOP-62 NSCLC, with OVCAR-3 ovarian and in the test on SF-539 CNS was greater than 100 µM each time.
On to `COc1cccc(N/C(C)=C2/CCOC2=O)c1`, for which the TGI with HS 578T breast, in the test on NCI-H226 lung, in the test on SNB-19 CNS, with U251 CNS, in the test on SR leukemia and with MDA-MB-435 was greater than 10 µM in each case. For the same molecule, the TGI in the test with MCF7 breast, in the test with HOP-62 NSCLC, in the test on OVCAR-3 ovarian and with SF-539 CNS was greater than 10 µM each time.
